Assay results published in patent US8318446B2, “DNA-damage-induced proteolysis” (California Institute of Technology, priority 2008, dated 2012).
Where two headings read alike, the source gives them in different places.

Key:
p53 = test: Nuclear p53 in MESC2.10 neurons, western blotting; type: cell-based, human; conditions: etoposide
Text: Nuclear extracts from MESC2.10 neurons were examined for the presence p53 by western blotting. Lanes 1-4 are nuclear extracts from MESC2.10 neurons with EGFP and lanes 5-8 are from neurons that were transduced with IKKα lentiviruses (FIG. 3C). Staining with anti-lamin B1 was used to ensure equal loading (bottom panel).

IKKα [1] = test: IKKα protein level in MESC2.10 neurons, western blot; type: cell-based, human
Text: Lysates were first treated with a combination of anti-IKKβ and IKKγ antibodies coupled to agarose beads to deplete IKKγ/IKKβ/IKKα complex. […] Fold changes of IKK activity were quantified by measuring the band intensity using Image J, and compared to non-treated neurons.
FIG. 3C is a western blot showing IKKα levels in the control and IKKα-expressing neurons. MESC2.10 neuroblasts were transduced with an IKKα recombinant lentivirus and differentiated as described below. EGFP lentivirus was used as a control.
IKKα was cloned into the lentiviral FUGW vector under the control of a ubiquitin promoter. An EGFP-lentivirus was used as a control. The Bcl-xL cDNA was cloned from MESC2.10 neurons by RT-PCR using standard procedures and its identity confirmed by sequencing. The cDNA was subsequently inserted into FUGW lentiviral vector. The shRNAs for IKKβ were cloned in a lentiviral backbone. Lentiviruses were produced by transfection of 293 cells using calcium phosphate precipitation. Supernatants of virus-producing cells were harvested 48 hr post-transfection and concentrated on Amicon Ultra columns. An EGFP virus was used as a control to monitor viral titer. A multiplicity of infection of 4:1 was used to infect MESC2.10 neuroblasts. Expression of IKKα, Bcl-xL and reduction of IKKβ were determined by Western blotting.

caspase-6 [2] = type: cell-based, human; conditions: etoposide 6 hrs; VEID-p-nitroanaline substrate; sodium salicylate 5 mg/ml 1 hour prior
caspase-6 [3] = target: T1, caspase-6 (Homo sapiens, UniProt P55212); type: cell-based; conditions: MESC2.10 neurons, 6 hrs of etoposide treatment, western blot
T1 construct: endogenous in cells; host or cells: differentiated MESC2.10 human neurons (lysates)
T1 sequence (P55212 1-293): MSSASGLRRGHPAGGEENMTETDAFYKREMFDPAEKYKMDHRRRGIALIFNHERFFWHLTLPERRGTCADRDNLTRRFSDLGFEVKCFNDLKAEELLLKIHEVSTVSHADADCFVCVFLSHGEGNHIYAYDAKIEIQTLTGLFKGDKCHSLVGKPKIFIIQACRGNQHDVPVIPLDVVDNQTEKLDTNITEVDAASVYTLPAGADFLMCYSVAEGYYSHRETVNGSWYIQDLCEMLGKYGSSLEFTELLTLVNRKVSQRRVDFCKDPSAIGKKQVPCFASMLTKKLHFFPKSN

endogenous Htt = test: Etoposide-induced Htt proteolysis in MESC2.10 neurons, Western blotting with anti-Htt mAb 2166; type: cell-based, human; conditions: for effect on etoposide-induced Htt proteolysis: pre-incubation 1 hr prior to 10 μM etoposide, sodium salicylate 5 mg/ml, caspase inhibitors 20 μM
Text: Extracts were examined for Htt by Western blotting. […] Fold changes for full-length Htt levels were obtained by measuring the band intensity in each lane, normalized to tubulin and compared to non-treated control.
EGFP-lentivirus was used a control (C). […] Second and third panels show staining for Bcl-xL and pro-caspase-3, respectively. IKKγ levels were used as a loading control.
(§1) Neurons were harvested and separated into cytoplasmic and nuclear fractions using the NE-PER kit (PIERCE) according to instructions. For most experiments, ˜120 μg of lysate were used for SDS-PAGE and Western blotting with the indicated antibodies. Reactive bands in Western blots were detected by enhanced chemiluminescence (ECL) using a gel documentation system.

IKKα [4] = test: IKKα kinase assay on IKKα complexes devoid of IKKβ from MESC2.10 neurons; type: cell-based, human; conditions: longer treatment with 10 μM etoposide
Experimental: (§2) To determine IKKα activity, lyastes were first depleted of IKKβ complexes using 4 μg of anti-IKKγ and anti-IKKβ antibodies coupled to protein G. The depleted lysates were used to isolate IKKα complexes with 2 μg of anti-IKKα antibody. GST-IκBα was used as a substrate to measure kinase activity. To examine whether IKKs phosphorylate Bcl-xL, 0.5 μg of either IKKα or IKKβ were incubated with 1 μg of full-length Bcl-xL in the presence of 32P-γ-ATP for 30 min at 30° C. GST protein was used as a negative control. All kinase products were examined by SDS-PAGE and autoradiography.
To determine whether DNA damage influences IKKα activity, IKKα complexes devoid of IKKβ was obtained. Neuronal extracts were depleted by prior incubation with anti-IKKγ and anti-IKKβ antibodies, and IKKα complexes were subsequently immunoprecipitated.

MESC2.10 neurons = test: BrdU incorporation (cell cycle activation) in MESC2.10 neurons; type: cell-based, human; conditions: Day 6 differentiated neurons, 10 μM etoposide 4 hours, BrdU 1 mM
Experimental: BrdU incorporation was detected described in M&M. Image was captured with a confocal microscope.
BrdU (1 mM) was added and incubated for additional 2 hours. Cells were fixed in 5% paraformaldehyde followed by permeabilization in 70% methanol in PBS at −20° C. overnight. To denature chromatin, coverslips were immersed in 2 N HCl for 30 minutes at 37° C. and neutralized in 0.1 M borate buffer (pH 8.5) by washing 2 times for 5 minutes. To detect BrdU incorporation, coverslips were incubated with Rat-anti-BrdU (1:200). Anti-Tuj-1 (1:1000) was used to stain neurons. Goat anti rat conjugated to rhodamine and goat anti-mouse conjugated to FITC (1:500) were used as secondary. Pictures were captured with a confocal microscope.

[5] = test system: full-length, mutant Htt protein; test: Etoposide-induced proteolysis of mutant Htt in striatal Hdh^Q111/Q111 neurons; type: cell-based, mouse; conditions: 10 μM etoposide for 6 hours
Text: Processing of samples was as described in FIG. 3A. […] IKKγ was used as loading control.

Bcl-xL [6] = test: Bcl-xL level in extracts of MESC2.10 neurons, Western blotting; type: cell-based, human
Text: FIG. 6A is a western blot showing the expression of Bcl-XL. Extracts of control and etoposide-treated MESC2.10 neurons were examined for Bcl-xL by Western blotting. […] Fold changes were normalized to the intensity of loading control, and compared to that of untreated control neurons (lane 5).

p65 NF-κB = p65 NF-κB binding to consensus DNA oligonucleotides, nuclear extracts of MESC2.10 neurons; type: cell-based, human; conditions: etoposide
Experimental: Lanes 1-4 show p65 binding from nuclear extracts of control and lanes 5-8 show p65 binding from neurons transduced with a lentivirus expressing IKKα (FIG. 3C).
Wells with mutated NF-κB DNA oligonucleotides were used to ensure specificity of the binding (column 4).
Nuclear extracts for control or etoposide-treated MESC2.10 neurons were obtained using the cell fractionation kit from pierce according to the instructions provided. Fifty μg of each nuclear extract was incubated for an hour at room temperature on 96 well plates coated with consensus NF-κB oligonucleotides (p65 or p52). Mutated NF-κB oligonucleotides were used to confirm binding specificity. For competition assays, nuclear extracts were pre-incubated with NF-κB oligonucleotides for 1 hour on ice and then added to the coated wells. After washing, each well was incubated with anti-p65 or anti-p52 antibodies for 30 min at 37° C. Wells were washed, followed by incubation with a secondary antibody conjugated to HRP. TMB (3,3′,5,5′-tetramethylbenzidine) was added for 10 min. Binding was measured in a microplate reader at 655 nm.

caspase-3 [7] = target: T2, caspase-3 (Homo sapiens, UniProt P42574); type: cell-based; conditions: MESC2.10 neurons, 6 hrs of etoposide treatment, western blot
T2 construct: Fifty μg of each lysate was incubated with either caspase-3 substrate (DEVD conjugated to p-nitroanaline); endogenous in cells; host or cells: differentiated MESC2.10 human neurons (lysates)
T2 sequence (P42574 1-277): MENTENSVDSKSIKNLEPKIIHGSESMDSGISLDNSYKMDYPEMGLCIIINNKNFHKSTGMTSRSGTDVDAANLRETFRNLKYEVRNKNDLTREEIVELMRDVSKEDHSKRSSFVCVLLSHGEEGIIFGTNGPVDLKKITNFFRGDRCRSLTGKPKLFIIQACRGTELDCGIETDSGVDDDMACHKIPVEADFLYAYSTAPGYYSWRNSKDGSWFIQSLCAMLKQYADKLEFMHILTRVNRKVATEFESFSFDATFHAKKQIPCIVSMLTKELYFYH

caspase-3 [8] = type: cell-based, human; conditions: etoposide 6 hrs; DEVD-p-nitroanaline substrate; sodium salicylate 5 mg/ml 1 hour prior
Bcl-xL [9] = conditions: Hdh^Q111/Q111 neurons; NaSal 5 mg/ml 1 hour prior to 10 μM etoposide
Experimental: as §1

Htt = test: γ-irradiation-induced Htt cleavage in MESC2.10 neurons; type: cell-based, human; conditions: 5 Gy, 6 hours; sodium salicylate 5 mg/ml 1 hour prior to irradiation
Experimental: Cells were irradiated with 5 Gy and further incubated for the indicated time. Sodium salicylate (NaSal, lane 5) was added at a concentration of 5 mg/ml 1 hour prior to irradiation and incubated for 6 hours. […] Lanes 7 and 8 represent MESC2.10 neurons transduced with an IKKβ shRNA lentivirus (FIG. 4A) and irradiated with 5 Gy and incubated for 6 hours. […] Tubulin was used as a loading control
To confirm that Htt cleavage is induced by DNA damage and not other, secondary effects of etopoisde, we examined whether DNA damage induced by γ-irradiation of neurons could have a similar effect on Htt cleavage. […] The difference may be due to rapid induction of double stranded DNA breaks by irradiation.

recombinant IKKβ = recombinant IKKβ (Homo sapiens, UniProt O14920); conditions: full-length Bcl-xL, 32P-γ-ATP, 30 min at 30° C.
Experimental: Active recombinant IKKα or IKKβ were tested for the ability to phosphorylate Bcl-xL. The kinase assay was performed using recombinant Bcl-xL as a substrate. Products were visualized by autoradiography. IκBα was used as a positive control substrate for IKKα.
as §2
The possibility that activated IKKβ phosphorylates Bcl-xL was tested. To avoid contamination with other neuronal kinases that may co-immunoprecipitate with IKKβ, recombinant IKKs were used for in vitro kinase assays with Bcl-xL as the substrate.

IKKα [10] = test: Activation of IKKα in MESC2.10 neurons expressing Flag-tagged IKKα, immune kinase assay; type: cell-based, human; conditions: neurons starved for growth factors 8 hours; IGF-1 20 ng/ml, netrin 100 ng/ml
Experimental: IGF-1 was added at 20 ng/ml for the indicated time.
Netrin was added at 100 ng/ml for the indicated time.
The ability of a molecule to increase IKKα activation can be measured using assays that are well known in the art. For example and without limitation, IKKα activators can be identified using immune kinase assays and gene reporter assay. In an example of immune kinase assays, MESC2.10 neurons engineered to express a Flag-tagged IKKα are starved for growth factors for 8 hours. Candidate IKKα activators are added, respectively, to the starved MESC2.10 neurons for desired period of time. Neurons are harvested and cytoplasmic extracts are used to immunoprecipitate IKKα using agarose beads coupled to anti-Flag antibody. Complexes are assayed for the ability to phosphorylate a recombinant substrate GST-IκBα in the presence of radioactive […]. Products are examined by SDS-PAGE followed by autoradiography.
MESC2.10 neurons engineered to express a Flag-tagged IKKα were starved for growth factors for 8 hours. 20 ng/ml insulin-like growth factor-1 (IGF-1) and 100 ng/ml netrin were added, respectively, to the starved MESC2.10 neurons for the indicated time. […] Fold changes of IKK activity were quantified by measuring the band intensity using Image J, and compared to non-treated neurons.

IKKβ = target: T3, IKKβ (Homo sapiens, UniProt O14920); conditions: cited from earlier work
T3 sequence (O14920 1-756): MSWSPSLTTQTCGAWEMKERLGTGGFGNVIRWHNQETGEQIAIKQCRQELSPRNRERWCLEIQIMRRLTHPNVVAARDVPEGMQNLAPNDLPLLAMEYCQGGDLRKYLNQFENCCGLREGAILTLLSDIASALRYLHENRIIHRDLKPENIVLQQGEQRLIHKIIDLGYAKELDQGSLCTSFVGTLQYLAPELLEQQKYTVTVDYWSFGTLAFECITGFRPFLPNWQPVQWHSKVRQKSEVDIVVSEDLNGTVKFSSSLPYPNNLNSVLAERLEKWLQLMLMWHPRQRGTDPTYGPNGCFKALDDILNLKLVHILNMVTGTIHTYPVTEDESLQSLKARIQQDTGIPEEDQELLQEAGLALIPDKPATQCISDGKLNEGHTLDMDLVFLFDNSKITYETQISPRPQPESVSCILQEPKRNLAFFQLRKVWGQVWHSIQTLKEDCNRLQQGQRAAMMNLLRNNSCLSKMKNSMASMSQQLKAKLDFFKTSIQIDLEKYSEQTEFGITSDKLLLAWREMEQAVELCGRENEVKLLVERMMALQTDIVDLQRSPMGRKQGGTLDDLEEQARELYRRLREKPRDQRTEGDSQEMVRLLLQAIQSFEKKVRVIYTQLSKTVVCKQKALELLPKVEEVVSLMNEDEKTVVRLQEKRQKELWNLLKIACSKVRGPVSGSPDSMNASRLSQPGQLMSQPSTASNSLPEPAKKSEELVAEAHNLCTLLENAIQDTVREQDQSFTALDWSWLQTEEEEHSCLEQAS

COc1cc([C@@H]2c3cc4c(cc3[C@@H](O[C@@H]3O[C@@H]5CO[C@@H](C)O[C@H]5[C@H](O)[C@H]3O)[C@H]3COC(=O)[C@H]23)OCO4)cc(OC)c1O [etoposide]
nuclear p53 (p53): accumulates in the nucleus | level of IKKα protein after etoposide treatment (IKKα [1]): decrease | caspase-6 activity in neuronal extracts (caspase-6 [2]): elevated | procaspase-6 level / activation (caspase-6 [3]): reduced | increase of the level of endogenous, full-length Htt (endogenous Htt; MESC2.10 neurons, 10 μM etoposide, early time points): ~4 fold | time required for maximal Htt proteolysis (endogenous Htt; MESC2.10 neurons, etoposide): ~6 h | proteolysis of endogenous Htt caused by the agent (endogenous Htt; MESC2.10 neurons, longer exposure to 10 μM etoposide): induces proteolysis of endogenous Htt | IKKα kinase activity after etoposide treatment (IKKα [4]): reduces IKKα activity | cell cycle activation measured by BrdU incorporation (MESC2.10 neurons): promotes cell cycle activation | cleavage of full-length mutant Htt caused by the agent [5]: promoted cleavage of full-length, mutant Htt protein | level of intact Bcl-xL after etoposide (Bcl-xL [6]; MESC2.10 neurons, etoposide 6 hours): reduced | p65 NF-κB DNA binding activity (p65 NF-κB): activated p65 NF-κB DNA binding | procaspase-3 level / activation (caspase-3 [7]): reduced | caspase-3 activity in neuronal extracts (caspase-3 [8]): elevated

O=C([O-])c1ccccc1O.[Na+] [sodium salicylate]
caspase-6 activity in neuronal extracts (caspase-6 [2]): lowered the etoposide-induced activation of caspases | effect on etoposide-induced reduction of Bcl-xL (Bcl-xL [9]): prevented | effect on etoposide-induced Htt proteolysis (endogenous Htt): blocks etoposide-induced Htt proteolysis | effect on etoposide-induced reduction of Bcl-xL (Bcl-xL [6]; MESC2.10 neurons pre-treated or transduced, then etoposide): did not affect Bcl-xL | effect on Htt cleavage induced by γ-irradiation (Htt): blocked Htt cleavage | caspase-3 activity in neuronal extracts (caspase-3 [8]): lowered the etoposide-induced activation of caspases | phosphorylation of Bcl-xL by IKKβ (recombinant IKKβ): prevented the reaction

Ac-DEVD-CHO
effect on etoposide-induced Htt proteolysis (endogenous Htt): reduced Htt proteolysis

Ac-VEID-aldehyde
effect on etoposide-induced Htt proteolysis (endogenous Htt): no significant effect

IGF-1: insulin-like growth factor-1, IKKα activator
activation of IKKα (IKKα [10]): activates IKKα

arsenite
IKKβ activation (IKKβ): potently inhibited IKKβ activation
